Source: ChEMBL document CHEMBL3885881, “DrugMatrix”
Several values for one entry are separate records, joined by “and”; a condition that tells them apart may be missing. Equal entries are not always repeated.

Species: Rattus norvegicus
Test: DrugMatrix - Regimen: Daily Repeat
Format: toxicity, organism-based, Sprague-Dawley
Set-up: regimen Daily Repeat, gender Male, age 6-8 weeks
Settings: in vivo, ip, route intraperitoneal, vehicle 100 % SALINE; for ABSOLUTE BASOPHIL / ABSOLUTE EOSINOPHIL / ABSOLUTE LYMPHOCYTE / ABSOLUTE MONOCYTE / ABSOLUTE SEGMENTED NEUTROPHIL / BASOPHIL / EOSINOPHIL / ERYTHROCYTE COUNT / HEMATOCRIT / HEMOGLOBIN / LEUKOCYTE COUNT / LYMPHOCYTE / MEAN CORPUSCULAR HEMOGLOBIN / MEAN CORPUSCULAR HEMOGLOBIN CONCENTRATION / MEAN CORPUSCULAR VOLUME / MONOCYTE / NEUTROPHIL / PLATELET COUNT: tissue Blood
[1] = 0 mg/kg, 120 h, dose level Control, time 5 day
[2] = 0 mg/kg, 120 h, tissue Plasma, dose level Control, time 5 day
[3] = 0 mg/kg, […], dose level Control, time 14 day
[4] = 0 mg/kg, […], dose level Control, time 28 day
[5] = 0 mg/kg, […], tissue Plasma, dose level Control, time 14 day
[6] = 0 mg/kg, […], tissue Plasma, dose level Control, time 28 day
[7] = 2 mg/kg, 120 h, dose level High, time 5 day

LEAD (II) ACETATE
ABSOLUTE BASOPHIL [1]: 32 cells/µL | ABSOLUTE EOSINOPHIL [1]: 110 cells/µL | ABSOLUTE LYMPHOCYTE [1]: 6630 cells/µL | ABSOLUTE MONOCYTE [1]: 140 cells/µL | ABSOLUTE SEGMENTED NEUTROPHIL [1]: 1170 cells/µL | BASOPHIL [1]: 0.38% and 0.35% | EOSINOPHIL [1]: 1.28% and 0.62% | ERYTHROCYTE COUNT [1]: 7.45 x10E6/uL and 7.26 x10E6/uL | HEMATOCRIT [1]: 45.74% and 47.97% | HEMOGLOBIN [1]: 14.72 G/DL and 15.38 G/DL | LEUKOCYTE COUNT [1]: 8.11 x10E3/uL and 8.68 x10E3/uL | LYMPHOCYTE [1]: 81.3% and 86.77% | MEAN CORPUSCULAR HEMOGLOBIN [1]: 19.76 pg and 21.18 pg | MEAN CORPUSCULAR HEMOGLOBIN CONCENTRATION [1]: 32.16 G/DL and 32.05 G/DL | MEAN CORPUSCULAR VOLUME [1]: 61.38 fL and 66.15 fL | MONOCYTE [1]: 1.76% and 1.57% | NEUTROPHIL [1]: 14.9% and 9.53% | PLATELET COUNT [1]: 1322.4 x10E3/uL and 1786 x10E3/uL | ALANINE AMINOTRANSFERASE [2]: 25.8 u/L and 20.5 u/L | ALBUMIN [2]: 3.64 G/DL and 4.35 G/DL | ALKALINE PHOSPHATASE [2]: 300 u/L | ASPARTATE AMINOTRANSFERASE [2]: 81.4 u/L and 86.75 u/L | BLOOD UREA NITROGEN [2]: 14.4 mg/dL and 17 mg/dL | CARBON DIOXIDE [2]: 29 mmol/L | CHOLESTEROL [2]: 69.2 mg/dL and 51.25 mg/dL | CREATINE PHOSPHOKINASE [2]: 303.2 u/L and 384.75 u/L | CREATININE [2]: 0.56 mg/dL and 0.47 mg/dL | GLUCOSE [2]: 125.4 mg/dL and 128.75 mg/dL | LACTATE DEHYDROGENASE [2]: 105.4 u/L and 145 u/L | LIPASE [2]: 22.4 u/L and 13.25 u/L | PHOSPHORUS [2]: 11.8 mg/dL | POTASSIUM [2]: 5.52 MEQ/L and 6.58 MEQ/L | SODIUM [2]: 147 MEQ/L and 151 MEQ/L | TOTAL BILIRUBIN [2]: 0.2 mg/dL and 0.33 mg/dL | TOTAL PROTEIN [2]: 6.1 G/DL and 6.53 G/DL | URIC ACID [2]: 1.06 mg/dL and 1.95 mg/dL | ABSOLUTE BASOPHIL [3]: 130 cells/µL | ABSOLUTE EOSINOPHIL [3]: 140 cells/µL | ABSOLUTE LYMPHOCYTE [3]: 13500 cells/µL | ABSOLUTE MONOCYTE [3]: 400 cells/µL | ABSOLUTE SEGMENTED NEUTROPHIL [3]: 2330 cells/µL | HEMATOCRIT [3]: 45.98% | HEMOGLOBIN [3]: 15.17 G/DL | MEAN CORPUSCULAR VOLUME [3]: 59.4 fL | NEUTROPHIL [3]: 14.14% | ABSOLUTE BASOPHIL [4]: 91 cells/µL | ABSOLUTE EOSINOPHIL [4]: 110 cells/µL | ABSOLUTE LYMPHOCYTE [4]: 9910 cells/µL | ABSOLUTE MONOCYTE [4]: 210 cells/µL | ABSOLUTE SEGMENTED NEUTROPHIL [4]: 1560 cells/µL | BASOPHIL [4]: 0.77% | EOSINOPHIL [4]: 0.92% | ERYTHROCYTE COUNT [4]: 8.21 x10E6/uL | HEMATOCRIT [4]: 47.53% | HEMOGLOBIN [4]: 15.65 G/DL | LEUKOCYTE COUNT [4]: 11.91 x10E3/uL | LYMPHOCYTE [4]: 83.34% | MEAN CORPUSCULAR HEMOGLOBIN [4]: 19.07 pg | MEAN CORPUSCULAR HEMOGLOBIN CONCENTRATION [4]: 32.93 G/DL | MEAN CORPUSCULAR VOLUME [4]: 57.9 fL | MONOCYTE [4]: 1.68% | NEUTROPHIL [4]: 12.97% | PLATELET COUNT [4]: 1323.8 x10E3/uL | ALBUMIN [5]: 3.66 G/DL | CARBON DIOXIDE [5]: 25 mmol/L | CHLORIDE [5]: 107 MEQ/L | CREATINE PHOSPHOKINASE [5]: 410.25 u/L | SODIUM [5]: 149.2 MEQ/L | URIC ACID [5]: 0.94 mg/dL | ALANINE AMINOTRANSFERASE [6]: 30 u/L | ALBUMIN [6]: 3.71 G/DL | ALKALINE PHOSPHATASE [6]: 186.8 u/L | ASPARTATE AMINOTRANSFERASE [6]: 78.2 u/L | BLOOD UREA NITROGEN [6]: 14.2 mg/dL | CHOLESTEROL [6]: 44.9 mg/dL | CREATINE PHOSPHOKINASE [6]: 334.3 u/L | CREATININE [6]: 0.6 mg/dL | GLUCOSE [6]: 147.2 mg/dL | LACTATE DEHYDROGENASE [6]: 123.1 u/L | LIPASE [6]: 9.6 u/L | PHOSPHORUS [6]: 10.01 mg/dL | POTASSIUM [6]: 6.57 MEQ/L | SODIUM [6]: 149.5 MEQ/L | TOTAL BILIRUBIN [6]: 0.21 mg/dL | TOTAL PROTEIN [6]: 6.66 G/DL | URIC ACID [6]: 1.26 mg/dL | ABSOLUTE BASOPHIL [7]: 120 cells/µL | ABSOLUTE EOSINOPHIL [7]: 150 cells/µL | ABSOLUTE LYMPHOCYTE [7]: 10100 cells/µL | ABSOLUTE MONOCYTE [7]: 250 cells/µL | ABSOLUTE SEGMENTED NEUTROPHIL [7]: 2470 cells/µL
